Activity calls are given as the source filed them.
Experiments:
[1] = luciferase reporter signal suppression in cells – H4 neuroglioma cells, luminescence, dose response (AID 1990); format: functional, cell-based
HEK293 [2] = assay: inhibition of NOD1-driven NF-kB reporter – cell-based, luminescence, uHTS, primary screen (AID 1578); format: functional; details: Homo sapiens
HEK293 [3] = assay: cells; format: functional, cell-based; details: Homo sapiens
[4] = Luminescence Cell-Based Dose Response HTS to Identify Inhibitors of 5'UTR Stem-Loop Driven Prion Protein mRNA Translation in H4 Neuroglioblastoma Cells. [Related pubchem assays: 1827 (Project Summary), 1813 (Primary HTS)]; format: functional
[5] = alpha-synuclein stem-loop luciferase translation blockers – H4 neuroglioma cells, luminescence, confirmation (AID 1988); format: functional, cell-based
HEK293 [6] = assay: cells; format: functional, cell-based; details: Homo sapiens; remark: listed apart in the source
[7] = biological target: Nucleotide-binding oligomerization domain-containing protein 2 (Homo sapiens, UniProt Q9HC29); assay: inhibition of NOD2-driven NF-kB reporter – cell-based, luminescence, uHTS, HEK293 (AID 1566); format: functional
Chain of Nucleotide-binding oligomerization domain-containing protein 2 (Q9HC29 whole entry, the tested form may be a part): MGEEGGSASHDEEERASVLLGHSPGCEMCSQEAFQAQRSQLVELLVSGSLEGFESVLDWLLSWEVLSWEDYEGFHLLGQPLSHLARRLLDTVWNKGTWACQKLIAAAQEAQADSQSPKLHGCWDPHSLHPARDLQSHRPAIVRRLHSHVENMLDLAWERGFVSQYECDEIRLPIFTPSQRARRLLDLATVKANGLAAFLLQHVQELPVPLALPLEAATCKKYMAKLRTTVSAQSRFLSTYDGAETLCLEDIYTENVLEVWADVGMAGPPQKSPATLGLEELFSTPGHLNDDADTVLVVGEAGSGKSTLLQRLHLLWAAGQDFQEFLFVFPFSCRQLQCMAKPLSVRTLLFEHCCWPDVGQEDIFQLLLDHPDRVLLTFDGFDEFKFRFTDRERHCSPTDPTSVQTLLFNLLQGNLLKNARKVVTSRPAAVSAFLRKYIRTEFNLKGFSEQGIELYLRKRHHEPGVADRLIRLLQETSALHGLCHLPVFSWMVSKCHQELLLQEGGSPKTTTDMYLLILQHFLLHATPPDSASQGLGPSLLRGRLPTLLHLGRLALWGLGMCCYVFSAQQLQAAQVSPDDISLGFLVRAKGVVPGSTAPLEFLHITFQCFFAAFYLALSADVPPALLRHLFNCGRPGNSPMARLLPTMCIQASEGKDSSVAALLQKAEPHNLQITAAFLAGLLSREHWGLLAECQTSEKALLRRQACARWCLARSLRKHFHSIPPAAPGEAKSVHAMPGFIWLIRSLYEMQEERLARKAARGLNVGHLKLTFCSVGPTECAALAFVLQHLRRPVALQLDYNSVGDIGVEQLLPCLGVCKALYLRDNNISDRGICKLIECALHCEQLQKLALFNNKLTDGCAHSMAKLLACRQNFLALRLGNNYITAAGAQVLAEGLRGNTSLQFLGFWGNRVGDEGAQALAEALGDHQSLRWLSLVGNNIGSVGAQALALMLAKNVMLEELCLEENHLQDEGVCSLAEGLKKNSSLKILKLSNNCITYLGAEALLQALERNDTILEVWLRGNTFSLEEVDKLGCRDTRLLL

HEK293 [8] = assay: NOD2 signaling inhibitors in MDP-stimulated cells, cell-based, uHTS, luminescence (AID 2001); format: functional; details: Homo sapiens
HEK293 [9] = assay: cells; format: functional, cell-based; details: Homo sapiens; remark: listed apart in the source
[10] = viability of PTEN-deleted HCT116 cells – cell-based, HCT116 PTEN knockout, dose response (AID 1047); format: functional;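 note: HCT116 colon tumor cells with PTEN knocked out; cells exposed to compound for 60 hours before readout; potency for loss of cell viability measured by luminescence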
[11] = viability of HCT116 lacking mutant beta-catenin – cell-based, human colon tumor, dose response (AID 1045); format: functional;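 note: HCT116 colon tumor cells with beta catenin knocked out; cells exposed to compound for 60 hours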
[12] = biological target: Sphingosine 1-phosphate receptor 4 (Homo sapiens, UniProt O95977); assay: Fluorescence dose response cell-based high throughput screening assay for antagonists of the Sphingosine 1-Phosphate Receptor 4 (S1P4). [Related pubchem assays: 1524 (Confirmation in triplicates.), 1510 (Primary screen.)]; format: functional
Chain of Sphingosine 1-phosphate receptor 4 (O95977 whole entry): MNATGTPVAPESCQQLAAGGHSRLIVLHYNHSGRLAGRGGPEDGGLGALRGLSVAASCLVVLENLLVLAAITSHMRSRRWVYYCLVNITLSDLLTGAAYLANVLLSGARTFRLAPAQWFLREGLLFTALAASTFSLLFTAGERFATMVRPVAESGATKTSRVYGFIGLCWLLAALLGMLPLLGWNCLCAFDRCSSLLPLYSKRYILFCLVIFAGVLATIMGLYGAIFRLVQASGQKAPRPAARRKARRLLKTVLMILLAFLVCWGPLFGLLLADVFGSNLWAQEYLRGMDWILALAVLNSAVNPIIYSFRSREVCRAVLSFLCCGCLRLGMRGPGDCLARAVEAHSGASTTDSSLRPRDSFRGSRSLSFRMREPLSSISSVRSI

[13] = biological target: Sphingosine 1-phosphate receptor 1 (Homo sapiens, UniProt P21453); format: functional;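 note: Tango beta-arrestin reporter U2OS cells stimulated with S1P near its EC80; inhibitor potency meaning antagonism of receptor activation by the natural agonist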
Chain of Sphingosine 1-phosphate receptor 1 (P21453 whole entry): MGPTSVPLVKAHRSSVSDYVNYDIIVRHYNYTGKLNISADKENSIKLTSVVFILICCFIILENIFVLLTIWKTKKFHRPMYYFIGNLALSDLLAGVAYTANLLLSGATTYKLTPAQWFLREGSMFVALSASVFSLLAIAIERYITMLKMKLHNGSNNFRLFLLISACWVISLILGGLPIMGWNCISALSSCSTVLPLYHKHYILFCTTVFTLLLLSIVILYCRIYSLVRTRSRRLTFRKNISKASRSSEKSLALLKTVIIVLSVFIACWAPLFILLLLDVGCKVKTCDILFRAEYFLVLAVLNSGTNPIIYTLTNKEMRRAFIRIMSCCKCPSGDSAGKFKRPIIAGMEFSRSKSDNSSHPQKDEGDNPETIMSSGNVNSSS

INS1 = assay: INS-1E survival protection against cytokine death – cell-based, luminescence, retest, dose response (AID 449756); format: functional; details: Rattus norvegicus;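 note: cell death triggered by IL-1 beta plus TNF-alpha plus IFN-gamma mixture; protective hits raise ATP signal compared with cytokine alone wells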
[14] = biological target: Beta-2 adrenergic receptor (Homo sapiens, UniProt P07550); assay: ADRB2 activation measured by internalization – cell-based, FAP fluorogen, flow cytometry, cherry pick 1, dose response (AID 588763); format: functional
Chain of Beta-2 adrenergic receptor (P07550 whole entry): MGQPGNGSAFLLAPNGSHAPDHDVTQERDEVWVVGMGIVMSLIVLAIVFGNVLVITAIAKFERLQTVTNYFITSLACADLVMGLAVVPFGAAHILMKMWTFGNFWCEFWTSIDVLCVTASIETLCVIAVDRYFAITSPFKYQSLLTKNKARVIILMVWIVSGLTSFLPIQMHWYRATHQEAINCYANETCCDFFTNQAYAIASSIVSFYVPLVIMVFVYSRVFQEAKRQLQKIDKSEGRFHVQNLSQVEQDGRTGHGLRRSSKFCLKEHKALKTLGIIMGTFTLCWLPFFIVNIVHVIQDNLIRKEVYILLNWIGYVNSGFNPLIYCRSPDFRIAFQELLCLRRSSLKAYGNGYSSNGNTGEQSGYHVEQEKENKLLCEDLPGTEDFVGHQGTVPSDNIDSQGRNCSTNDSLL

[15] = reduction of Shn3 3'UTR-driven luciferase in osteoblasts – cell-based, Clone20 osteoblasts, firefly luciferase, cherry-picked, dose response (AID 624132); format: functional;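 note: firefly luciferase luminescence from reporter carrying the Shn3 3'UTR in osteoblasts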
[16] = loss of viability in HepG2 cells – cell-based, CellTiter-Glo, cherry-picked, cytotoxicity control for Shn3 inhibitor project, dose response (AID 624134); format: functional
[17] = non-specific 3'UTR reporter inhibition in Clone20-Shn3RL – cell-based, Renilla luciferase, cherry-picked, counter-screen for Shn3 inhibitor project, dose response (AID 624133); format: functional
[18] = reduced cellular PGC1a acetyl-lysine signal – cell-based, cherry-picked samples, dose response (AID 720514); format: functional;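 note: potency may reflect raised or lowered acetylation signal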
Jurkat = assay: SAR Analysis of small molecule inhibitors of […] specific antigen receptor-induced NF-kB activation in a Jurkat cell line using a luminescence assay - Set 3. [Related pubchem assays (depositor defined):AID435022, AID435025, AID465]; format: functional, cell-based; details: Homo sapiens
HEK293 [19] = assay: SAR Analysis of small molecule inhibitors of B-cell specific antigen receptor-induced NF-kB activation in a HEK-293T cell line using a luminescence assay - Set 2. [Related pubchem assays (depositor defined):AID435022, AID435025, AID489021]; format: functional, cell-based; details: Homo sapiens
HEK293 [20] = assay: HEK293T cell viability loss, resazurin readout – resazurin fluorescence, cytotoxicity control for NF-kB activator project, SAR follow-up (AID 493251); format: functional, cell-based; details: Homo sapiens
[21] = biological target: Lysine-specific demethylase 4C (Homo sapiens, UniProt Q9H3R0); assay: inhibition of JMJD2C H3K9me3 demethylation – biochemical, DELFIA europium, cherry-picked samples, dose response (AID 488835); format: functional
Chain of Lysine-specific demethylase 4C (Q9H3R0 whole entry): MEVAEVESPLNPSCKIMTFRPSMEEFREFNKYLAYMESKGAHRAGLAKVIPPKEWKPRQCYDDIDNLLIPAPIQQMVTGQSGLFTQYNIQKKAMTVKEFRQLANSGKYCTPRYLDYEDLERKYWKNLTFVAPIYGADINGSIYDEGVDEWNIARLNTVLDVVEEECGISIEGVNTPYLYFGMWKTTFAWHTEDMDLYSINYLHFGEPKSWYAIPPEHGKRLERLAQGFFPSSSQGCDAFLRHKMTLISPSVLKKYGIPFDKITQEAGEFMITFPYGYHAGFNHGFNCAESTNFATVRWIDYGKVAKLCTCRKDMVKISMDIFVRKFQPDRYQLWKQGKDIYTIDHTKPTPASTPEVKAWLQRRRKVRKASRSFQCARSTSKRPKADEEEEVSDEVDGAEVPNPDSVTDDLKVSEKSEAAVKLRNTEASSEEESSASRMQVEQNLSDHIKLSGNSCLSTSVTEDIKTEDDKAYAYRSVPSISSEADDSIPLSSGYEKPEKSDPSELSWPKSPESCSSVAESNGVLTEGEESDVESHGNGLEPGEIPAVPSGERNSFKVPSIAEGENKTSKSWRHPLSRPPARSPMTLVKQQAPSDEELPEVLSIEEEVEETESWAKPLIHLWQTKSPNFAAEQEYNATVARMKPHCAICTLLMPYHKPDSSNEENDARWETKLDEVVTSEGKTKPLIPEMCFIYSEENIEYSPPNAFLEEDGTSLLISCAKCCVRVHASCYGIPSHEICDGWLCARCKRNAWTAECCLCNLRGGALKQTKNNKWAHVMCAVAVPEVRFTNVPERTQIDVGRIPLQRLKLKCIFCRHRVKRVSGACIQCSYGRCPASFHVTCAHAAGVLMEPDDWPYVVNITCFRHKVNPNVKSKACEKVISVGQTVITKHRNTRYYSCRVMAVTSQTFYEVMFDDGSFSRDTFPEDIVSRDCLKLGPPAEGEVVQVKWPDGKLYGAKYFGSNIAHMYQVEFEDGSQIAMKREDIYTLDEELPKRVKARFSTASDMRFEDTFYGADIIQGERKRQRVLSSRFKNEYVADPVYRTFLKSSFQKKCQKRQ

[22] = biological target: Apoptotic protease-activating factor 1 (Homo sapiens, UniProt O14727); format: functional
[23] = biological target: T1, Sentrin-specific protease 8 (Homo sapiens, UniProt Q96LD8); assay: inhibition of human SENP8 cleavage activity – biochemical, luminescence, SAR follow-up (AID 504501); format: functional
T1 sequence (Q96LD8 whole entry): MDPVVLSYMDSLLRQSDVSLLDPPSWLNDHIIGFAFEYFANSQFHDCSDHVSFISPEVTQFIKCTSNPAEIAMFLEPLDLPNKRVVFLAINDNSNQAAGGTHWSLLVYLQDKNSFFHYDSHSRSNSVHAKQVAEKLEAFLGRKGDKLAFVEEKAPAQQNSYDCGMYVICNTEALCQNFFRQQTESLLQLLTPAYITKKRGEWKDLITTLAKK

Caspase-3 [24] = biological target: T2, Caspase-3 (Homo sapiens, UniProt P42574); assay: inhibition of recombinant caspase-3 activity – biochemical, luminescence, set 2, selectivity assay for SENP protease inhibitor project, SAR follow-up (AID 588599); format: functional
T2 sequence (P42574 whole entry): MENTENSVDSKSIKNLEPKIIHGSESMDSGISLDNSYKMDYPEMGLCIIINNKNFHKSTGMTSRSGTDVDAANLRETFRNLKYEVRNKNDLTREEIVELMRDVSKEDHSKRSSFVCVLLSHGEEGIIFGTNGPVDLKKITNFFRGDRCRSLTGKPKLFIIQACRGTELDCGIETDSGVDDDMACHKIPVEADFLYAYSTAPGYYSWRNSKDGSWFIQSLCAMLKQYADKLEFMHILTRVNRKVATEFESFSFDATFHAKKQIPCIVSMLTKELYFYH

[25] = biological target: T1, Sentrin-specific protease 8; assay: inhibition of sentrin protease 8 – biochemical, luminescence, set 2, SAR follow-up (AID 588601); format: functional
Caspase-3 [26] = biological target: T2, Caspase-3; assay: SAR Analysis of small molecule inhibitors of Sentrin-specific proteases (SENPs) using a Caspase-3 Selectivity assay. [Related pubchem assays (depositor defined):AID2540, AID2599, AID434973, AID489001]; format: functional
[27] = biological target: T3, Sentrin-specific protease 7 (Homo sapiens, UniProt Q9BQF6); assay: inhibition of human SENP7 cleavage activity – biochemical, luminescence, set 2, SAR follow-up (AID 588600); format: functional
T3 sequence (Q9BQF6 whole entry): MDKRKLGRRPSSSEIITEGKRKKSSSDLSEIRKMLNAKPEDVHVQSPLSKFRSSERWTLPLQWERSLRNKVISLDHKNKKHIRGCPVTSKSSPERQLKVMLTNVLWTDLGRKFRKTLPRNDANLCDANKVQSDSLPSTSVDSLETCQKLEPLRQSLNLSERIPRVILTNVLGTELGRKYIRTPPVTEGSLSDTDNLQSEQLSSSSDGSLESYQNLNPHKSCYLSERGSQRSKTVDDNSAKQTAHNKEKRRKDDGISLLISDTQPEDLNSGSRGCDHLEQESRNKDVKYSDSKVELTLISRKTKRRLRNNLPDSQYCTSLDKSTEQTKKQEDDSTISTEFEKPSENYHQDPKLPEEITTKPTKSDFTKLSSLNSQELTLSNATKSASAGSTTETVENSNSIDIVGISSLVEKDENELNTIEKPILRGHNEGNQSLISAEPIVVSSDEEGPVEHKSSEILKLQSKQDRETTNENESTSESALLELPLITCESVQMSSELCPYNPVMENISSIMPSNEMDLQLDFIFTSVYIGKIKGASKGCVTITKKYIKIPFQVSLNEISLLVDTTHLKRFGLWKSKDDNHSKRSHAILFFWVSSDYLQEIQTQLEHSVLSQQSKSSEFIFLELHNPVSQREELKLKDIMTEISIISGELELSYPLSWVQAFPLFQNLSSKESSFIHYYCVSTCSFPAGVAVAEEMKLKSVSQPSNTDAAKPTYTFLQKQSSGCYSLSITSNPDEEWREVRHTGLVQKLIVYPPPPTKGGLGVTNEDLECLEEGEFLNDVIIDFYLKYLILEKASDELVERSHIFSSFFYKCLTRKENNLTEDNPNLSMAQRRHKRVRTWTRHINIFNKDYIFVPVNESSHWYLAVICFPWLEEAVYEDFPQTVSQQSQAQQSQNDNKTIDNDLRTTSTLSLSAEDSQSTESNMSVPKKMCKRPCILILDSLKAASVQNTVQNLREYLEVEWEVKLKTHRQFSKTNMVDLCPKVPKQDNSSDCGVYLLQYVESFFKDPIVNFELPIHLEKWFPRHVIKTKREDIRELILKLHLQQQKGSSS

[28] = biological target: T4, Sentrin-specific protease 6 (Homo sapiens, UniProt Q9GZR1); assay: SAR Analysis of small molecule inhibitors of Sentrin-specific protease 6 (SENP6) using a Luminescent assay. [Related pubchem assays (depositor defined):AID2582, AID2599]; format: functional
T4 sequence (Q9GZR1 whole entry): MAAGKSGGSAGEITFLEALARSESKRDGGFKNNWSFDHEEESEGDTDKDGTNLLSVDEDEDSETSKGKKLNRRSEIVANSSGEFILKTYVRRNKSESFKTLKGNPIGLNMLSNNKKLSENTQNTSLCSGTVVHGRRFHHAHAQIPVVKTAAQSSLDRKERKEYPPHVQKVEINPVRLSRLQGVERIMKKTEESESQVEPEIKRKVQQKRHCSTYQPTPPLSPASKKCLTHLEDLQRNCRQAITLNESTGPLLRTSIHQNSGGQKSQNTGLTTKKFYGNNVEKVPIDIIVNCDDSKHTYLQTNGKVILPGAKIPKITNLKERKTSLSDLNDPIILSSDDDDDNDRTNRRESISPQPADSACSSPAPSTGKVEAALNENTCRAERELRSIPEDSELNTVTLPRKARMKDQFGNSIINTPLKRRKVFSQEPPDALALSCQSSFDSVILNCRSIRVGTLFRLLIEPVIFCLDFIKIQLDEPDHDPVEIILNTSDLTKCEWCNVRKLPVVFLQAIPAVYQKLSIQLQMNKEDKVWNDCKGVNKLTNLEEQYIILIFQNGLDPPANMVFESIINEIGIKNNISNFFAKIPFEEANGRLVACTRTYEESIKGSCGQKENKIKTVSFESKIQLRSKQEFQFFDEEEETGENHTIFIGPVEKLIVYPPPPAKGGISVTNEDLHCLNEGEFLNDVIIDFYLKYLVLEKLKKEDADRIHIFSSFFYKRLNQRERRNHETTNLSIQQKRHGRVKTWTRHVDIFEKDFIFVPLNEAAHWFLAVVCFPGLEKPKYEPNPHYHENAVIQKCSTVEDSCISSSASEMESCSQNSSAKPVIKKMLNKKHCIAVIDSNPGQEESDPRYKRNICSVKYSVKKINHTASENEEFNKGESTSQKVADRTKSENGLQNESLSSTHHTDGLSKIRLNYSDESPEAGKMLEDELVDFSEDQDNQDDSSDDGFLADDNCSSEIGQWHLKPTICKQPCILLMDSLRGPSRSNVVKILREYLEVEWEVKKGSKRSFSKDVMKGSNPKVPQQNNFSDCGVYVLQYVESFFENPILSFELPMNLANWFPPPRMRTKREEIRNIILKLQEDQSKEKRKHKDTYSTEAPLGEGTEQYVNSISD

[29] = biological target: T4, Sentrin-specific protease 6; assay: inhibition of human SENP6 catalytic domain – biochemical, luminescence, set 2, SAR follow-up (AID 588598); format: functional
[30] = biological target: T3, Sentrin-specific protease 7; assay: inhibition of human SENP7 cleavage activity – biochemical, luminescence, SAR follow-up (AID 504497); format: functional
[31] = biological target: T5, Beta-adrenergic receptor kinase 1 (Homo sapiens, UniProt P25098); assay: aptamer displacement from bead-bound GRK2 – biochemical, cherry pick 1, bead flow cytometry, dose response (AID 504500)
T5 sequence (P25098 whole entry): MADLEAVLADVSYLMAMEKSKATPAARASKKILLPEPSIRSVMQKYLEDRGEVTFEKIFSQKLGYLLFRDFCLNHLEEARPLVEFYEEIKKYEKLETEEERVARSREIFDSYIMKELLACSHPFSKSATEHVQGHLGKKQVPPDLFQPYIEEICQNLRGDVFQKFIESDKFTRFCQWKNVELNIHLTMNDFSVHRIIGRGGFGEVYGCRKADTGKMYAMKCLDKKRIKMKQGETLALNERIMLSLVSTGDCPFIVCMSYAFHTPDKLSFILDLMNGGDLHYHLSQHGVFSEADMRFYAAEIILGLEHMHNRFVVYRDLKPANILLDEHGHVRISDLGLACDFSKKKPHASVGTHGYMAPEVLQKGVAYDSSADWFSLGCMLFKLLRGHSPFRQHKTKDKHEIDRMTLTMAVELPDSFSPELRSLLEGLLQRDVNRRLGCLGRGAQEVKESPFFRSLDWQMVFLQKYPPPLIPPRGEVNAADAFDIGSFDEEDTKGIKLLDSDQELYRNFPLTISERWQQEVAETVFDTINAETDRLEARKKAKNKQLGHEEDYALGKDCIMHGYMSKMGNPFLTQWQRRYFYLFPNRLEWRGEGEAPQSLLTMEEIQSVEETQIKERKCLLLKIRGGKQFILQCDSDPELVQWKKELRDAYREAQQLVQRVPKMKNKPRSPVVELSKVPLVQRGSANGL

[32] = biological target: T5, Beta-adrenergic receptor kinase 1; assay: blockers of aptamer binding to GRK2 – biochemical, flow cytometry beads, FAM-aptamer, powder set 1, dose response (AID 588720)
Nonstructural protein 1 = Nonstructural protein 1 (Influenza A virus, UniProt Q194T2); format: functional, Influenza A virus (A/California/07/2009(H1N1))
Chain of Nonstructural protein 1 (Q194T2 whole entry): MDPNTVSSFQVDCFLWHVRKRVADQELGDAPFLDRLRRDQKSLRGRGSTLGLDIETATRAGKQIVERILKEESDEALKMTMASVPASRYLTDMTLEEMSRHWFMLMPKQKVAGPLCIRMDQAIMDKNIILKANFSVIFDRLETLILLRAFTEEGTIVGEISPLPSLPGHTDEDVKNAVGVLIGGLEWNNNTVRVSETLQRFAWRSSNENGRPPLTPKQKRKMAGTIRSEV

Cysteine protease ATG4B = Cysteine protease ATG4B (Homo sapiens, UniProt Q9Y4P1); format: functional;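 note: Fluorescence-based dose-response confirmation assay measuring inhibition of ATG4B activity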
Chain of Cysteine protease ATG4B (Q9Y4P1 whole entry): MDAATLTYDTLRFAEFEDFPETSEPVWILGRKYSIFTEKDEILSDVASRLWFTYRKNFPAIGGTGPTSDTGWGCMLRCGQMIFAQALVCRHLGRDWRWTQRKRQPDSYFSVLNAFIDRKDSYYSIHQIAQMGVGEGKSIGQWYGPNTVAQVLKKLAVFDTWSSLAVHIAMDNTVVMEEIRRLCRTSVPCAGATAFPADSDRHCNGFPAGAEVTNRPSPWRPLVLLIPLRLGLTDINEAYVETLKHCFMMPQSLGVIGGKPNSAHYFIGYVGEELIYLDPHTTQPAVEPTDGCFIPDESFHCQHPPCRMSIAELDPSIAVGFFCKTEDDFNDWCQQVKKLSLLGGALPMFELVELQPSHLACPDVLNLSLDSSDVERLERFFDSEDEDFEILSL

Phospholipase A2 = Phospholipase A2 (Homo sapiens, UniProt P04054); format: functional;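 note: confirmatory dose-response counterscreen on phospholipase A2, testing hits that came from an ultra-high-throughput screen for ATG4B inhibitors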
Chain of Phospholipase A2 (P04054 whole entry): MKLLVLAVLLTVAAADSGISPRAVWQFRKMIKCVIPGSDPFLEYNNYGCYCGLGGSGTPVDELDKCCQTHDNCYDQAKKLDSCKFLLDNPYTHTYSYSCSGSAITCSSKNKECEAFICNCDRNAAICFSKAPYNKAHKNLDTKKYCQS

Structure (SMILES): Cc1ccc(-c2nc(NC(=O)c3nn(C)cc3[N+](=O)[O-])sc2C)cc1
- EC50 [1]: 5.46 µM (active)
- EC50 (HEK293 [2]): 5.58 µM (active)
- IC50 (HEK293 [3]): 2.48 µM (active)
- EC50 [4]: 5.05 µM (active)
- EC50 [5]: 1.84 µM (active)
- IC50 (HEK293 [6]): 14.7 µM (active)
- EC50 [7]: 3 µM (active)
- IC50 (HEK293 [8]): 2.14 µM (active)
- IC50 (HEK293 [9]): > 20 µM (inactive)
- EC50 [10]: 0.4 µM (active)
- EC50 [11]: 0.321 µM (active)
- IC50 [12]: 1.07 µM (active)
- IC50 [13]: 21 µM (not active)
- AC50 (INS1): 5.22 µM (active)
- EC50 [14]: 8.09 µM (active)
- AC50 [15]: 1.3 µM (active)
- AC50 [16]: 26.8 µM (active)
- AC50 [17]: 6.15 µM (active)
- AC50 [18]: 3.81 µM (active)

Structure (SMILES): CCOc1ccc(-c2nc(CSCC(=O)NCCC3=CCCCC3)c(C)o2)cc1
- IC50 (Jurkat): 9.13 µM (active)
- IC50 (HEK293 [19]): 17.6 µM (active)
- IC50 (HEK293 [20]): 42.4 µM (inactive)

Structure (SMILES): Oc1cc(N/N=C/c2ccccc2)nc(O)n1
- AC50 [21]: 8.88 µM (active)
- IC50 [22]: 20 µM (active)

Structure (SMILES): CCCCc1ccc2nc(NC(=O)c3cccs3)sc2c1
- IC50 [23]: 2.1 µM (active)
- IC50 (Caspase-3 [24]): 4.01 µM (active)
- IC50 [25]: 2.07 µM (active)
- IC50 (Caspase-3 [26]): 4.4 µM (active)
- IC50 [27]: 2.22 µM (active)
- IC50 [28]: 1.9 µM (active)
- IC50 [29]: 2.04 µM (active)
- IC50 [30]: 1.5 µM (active)

Structure (SMILES): COc1ccc(CNC(=O)CCS(=O)(=O)c2ccc(Br)cc2)cc1
- EC50 [31]: 0.7 µM (active)
- EC50 [32]: 3 µM (active)

Structure (SMILES): COCCNC(=O)/C(C#N)=C/c1c(N2CCN(c3ccccc3)CC2)nc2c(C)cccn2c1=O
- IC50 (Nonstructural protein 1): > 100 µM (active)
- IC50 (Cysteine protease ATG4B): 14.7 µM (active)
- IC50 (Phospholipase A2): 9.79 µM (active)
